Laboratory results taken from ChEMBL document CHEMBL3882724 (2013).

Columns and labels:
[1] = Half life in human liver microsomes at 1 uM by LC-MS/MS analysis
CYP11B = molecular target: T1, CYP11B (Rattus norvegicus, UniProt P15393+P30099); assay: Inhibition of Sprague-Dawley rat adrenal mitochondrial CYP11B assessed as decrease in conversion of 11-deoxycortisol to cortisol at 100 nM incubated for 60 mins by ELISA relative to control; format: protein assay; conditions: adrenal mitochondria, probe 11-deoxycortisol
T1 sequence (P30099 whole entry): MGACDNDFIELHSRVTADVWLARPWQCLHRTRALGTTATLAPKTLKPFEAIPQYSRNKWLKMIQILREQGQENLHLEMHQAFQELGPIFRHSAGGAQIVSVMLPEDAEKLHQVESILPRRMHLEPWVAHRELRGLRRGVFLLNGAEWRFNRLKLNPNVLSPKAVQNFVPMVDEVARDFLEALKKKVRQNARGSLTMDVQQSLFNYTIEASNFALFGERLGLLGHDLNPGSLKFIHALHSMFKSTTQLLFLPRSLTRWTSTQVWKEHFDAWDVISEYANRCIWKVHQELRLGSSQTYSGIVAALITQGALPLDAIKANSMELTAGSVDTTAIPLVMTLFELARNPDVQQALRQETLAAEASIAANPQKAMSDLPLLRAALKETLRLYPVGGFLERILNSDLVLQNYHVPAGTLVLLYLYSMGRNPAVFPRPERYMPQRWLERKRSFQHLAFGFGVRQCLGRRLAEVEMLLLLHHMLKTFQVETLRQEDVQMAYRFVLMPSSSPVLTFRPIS
T1 sequence (P15393 whole entry): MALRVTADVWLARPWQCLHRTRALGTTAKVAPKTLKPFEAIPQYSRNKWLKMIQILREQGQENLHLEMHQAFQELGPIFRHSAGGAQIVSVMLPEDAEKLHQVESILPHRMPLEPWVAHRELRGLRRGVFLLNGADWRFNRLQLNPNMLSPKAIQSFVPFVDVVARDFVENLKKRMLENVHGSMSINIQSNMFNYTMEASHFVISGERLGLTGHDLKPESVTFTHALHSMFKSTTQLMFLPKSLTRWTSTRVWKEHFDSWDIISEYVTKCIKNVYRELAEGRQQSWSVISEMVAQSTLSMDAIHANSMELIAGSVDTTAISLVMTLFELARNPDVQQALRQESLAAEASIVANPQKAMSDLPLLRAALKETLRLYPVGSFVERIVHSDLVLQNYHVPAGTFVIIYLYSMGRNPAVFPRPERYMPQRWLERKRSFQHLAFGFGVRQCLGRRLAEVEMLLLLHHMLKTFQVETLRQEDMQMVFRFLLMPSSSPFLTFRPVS

[2] = molecular target: T2, Steroid 17-alpha-hydroxylase/17,20 lyase (Homo sapiens, UniProt P05093); assay: Inhibition of CYP17 in human testicular microsomes using 17alpha-hydroxypregnenolone as substrate assessed as decrease in DHEA levels after 90 mins by ELISA; parameters: species or system Testis
T2 sequence (P05093 whole entry): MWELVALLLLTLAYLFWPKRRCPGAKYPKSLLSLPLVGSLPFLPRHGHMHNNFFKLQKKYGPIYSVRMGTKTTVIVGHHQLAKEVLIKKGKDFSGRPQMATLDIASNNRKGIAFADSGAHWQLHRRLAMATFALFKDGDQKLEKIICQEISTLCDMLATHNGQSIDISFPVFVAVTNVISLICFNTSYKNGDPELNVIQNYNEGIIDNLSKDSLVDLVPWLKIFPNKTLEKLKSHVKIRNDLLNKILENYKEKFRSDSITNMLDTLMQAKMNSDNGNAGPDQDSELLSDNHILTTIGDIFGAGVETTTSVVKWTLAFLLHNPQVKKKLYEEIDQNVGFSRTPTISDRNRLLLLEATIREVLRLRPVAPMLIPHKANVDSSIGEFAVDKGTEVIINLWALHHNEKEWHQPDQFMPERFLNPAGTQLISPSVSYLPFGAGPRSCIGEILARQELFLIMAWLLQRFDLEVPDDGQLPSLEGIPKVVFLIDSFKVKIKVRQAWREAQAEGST

[3] = molecular target: T3, CYP21 (steroid 21-hydroxylase) (Homo sapiens, UniProt P08686); assay: Inhibition of human CYP21 transfected in HEK293 cells assessed as decrease in conversion of progesterone to 11-deoxycorticosterone at 100 nM preincubated for 5 hrs followed by progesterone addition measured after 20 hrs by ELISA relative to control; format: cell-based; conditions: HEK293 cells transfected with human CYP21, probe progesterone
T3 sequence (P08686 whole entry): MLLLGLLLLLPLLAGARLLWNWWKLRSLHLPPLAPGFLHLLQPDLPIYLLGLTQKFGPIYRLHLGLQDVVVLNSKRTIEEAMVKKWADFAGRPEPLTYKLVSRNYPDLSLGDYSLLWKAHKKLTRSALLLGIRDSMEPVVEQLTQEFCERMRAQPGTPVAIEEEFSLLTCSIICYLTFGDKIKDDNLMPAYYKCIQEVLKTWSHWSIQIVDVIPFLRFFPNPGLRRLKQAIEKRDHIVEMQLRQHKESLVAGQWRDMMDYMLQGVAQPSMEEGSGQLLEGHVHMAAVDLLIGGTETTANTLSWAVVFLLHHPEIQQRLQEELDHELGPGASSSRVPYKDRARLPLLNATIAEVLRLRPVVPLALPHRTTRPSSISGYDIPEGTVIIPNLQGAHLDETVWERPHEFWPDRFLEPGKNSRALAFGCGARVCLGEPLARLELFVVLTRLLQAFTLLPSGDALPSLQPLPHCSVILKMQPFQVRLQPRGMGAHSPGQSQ

[4] = molecular target: T2, Steroid 17-alpha-hydroxylase/17,20 lyase; assay: Inhibition of CYP17 in human testicular microsomes using 17alpha-hydroxypregnenolone as substrate assessed as decrease in DHEA levels at 10 nM after 90 mins by ELISA relative to control; parameters: species or system Testis; conditions: 1.5 h
[5] = molecular target: T2, Steroid 17-alpha-hydroxylase/17,20 lyase; assay: Inhibition of CYP17 in human testicular microsomes using 17alpha-hydroxypregnenolone as substrate assessed as decrease in DHEA levels at 1 nM after 90 mins by ELISA relative to control; parameters: species or system Testis
[6] = molecular target: T3, CYP21 (steroid 21-hydroxylase); assay: Inhibition of human CYP21 transfected in HEK293 cells assessed as decrease in conversion of progesterone to 11-deoxycorticosterone preincubated for 5 hrs followed by progesterone addition measured after 20 hrs by ELISA; format: cell-based; parameters: concentration or dose not given beside the values; conditions: HEK293 cells transfected with human CYP21, probe progesterone
[7] = Half life in rat liver microsomes at 1 uM by LC-MS/MS analysis
[8] = molecular target: T2, Steroid 17-alpha-hydroxylase/17,20 lyase; assay: Inhibition of CYP17 in human H295R cells assessed as decrease in testosterone levels after 24 hrs by ELISA; format: cell-based

SMILES	half-life at 1 µM [1]	inhibition at 1 h, 0.1 µM (CYP11B)	IC50 [2]	inhibition at 20 h, 0.1 µM [3]	inhibition at 0.01 µM [4]	IC50 [5]	inhibition at 20 h [6]	half-life at 1 µM [7]	IC50 [8]
CN1CC[C@@]2(C)C(=CC1=O)CC[C@H]1C3=CC=C(c4cccnc4)[C@@]3(C)CC[C@@H]12	1 to 50 min	< 32%	≤ 11 nM	≥ 30%	≥ 80%	–	–	–	–
CO/N=C1/C=C2CC[C@H]3C4=CC=C(c5cccnc5)[C@@]4(C)CC[C@@H]3[C@@]2(C)CC1	≥ 50 min	–	≤ 11 nM	≥ 30%	–	> 100 nM	10 to 50%	–	–
C[C@]12CC[C@H]3[C@@H](CCC4=CC(=O)CC[C@@]43C)C1=CC=C2c1cccnc1	1 to 50 min	–	≤ 11 nM	≥ 30%	≥ 80%	–	–	1 to 10 min	–
C[C@]12CC[C@H]3[C@@H](CC[C@H]4CC(=O)CC[C@@]43C)C1=CC=C2c1cccnc1	1 to 50 min	≥ 50%	≤ 11 nM	≥ 30%	≥ 80%	–	–	–	–
CCNC(=O)N[C@@H]1CC[C@@]2(C)C(=CC[C@@H]3[C@@H]2CC[C@]2(C)C(n4ccnc4)=CC[C@@H]32)C1	1 to 50 min	≥ 50%	–	< 30%	–	–	≥ 50%	–	–
C[C@]12CC(O)C[C@@H]1CC[C@@H]1[C@@H]2CC[C@]2(C)C(n3ccnc3)=CC[C@@H]12 (stereo partly specified)	10 to 60 min	≥ 50%	≤ 11 nM	≥ 30%	≥ 80%	–	–	10 to 60 min	≤ 15 nM
CCc1cncc(C2=CC[C@H]3[C@@H]4CCC5=CC(=O)NCC[C@]5(C)[C@H]4CC[C@]23C)c1	10 to 60 min	–	≤ 11 nM	< 30%	≥ 80%	–	–	10 to 60 min	–
C[C@]12CC[C@H]3[C@@H](CC[C@H]4CC(=O)CC[C@@]43C)C1=CC=C2n1ccnc1	1 to 50 min	< 32%	≤ 11 nM	< 30%	≥ 80%	–	–	–	–
C[C@]12CC[C@H]3[C@@H](CC=C4C[C@@H](O)CC[C@@]43C)C1=CC=C2c1cccnc1	1 to 50 min	< 32%	≤ 11 nM	< 30%	50 to 80%	–	–	10 to 60 min	≤ 15 nM
C[C@]12CCNC(=O)C=C1CC[C@@H]1[C@@H]2CC[C@]2(C)C(c3cccnc3)=CC[C@@H]12	1 to 10 min	–	≤ 11 nM	< 30%	≥ 80%	–	–	1 to 10 min	–
Cc1cncc(C2=CC[C@H]3[C@@H]4CCC5=CC(=O)NCC[C@]5(C)[C@H]4CC[C@]23C)c1	10 to 60 min	–	≤ 11 nM	≥ 30%	50 to 80%	–	–	10 to 60 min	–
C[C@]12CC[C@H]3[C@@H](CCC4=CC(=O)CC[C@@]43C)C1=CC=C2n1ccnc1	≥ 50 min	≥ 50%	≤ 11 nM	< 30%	≥ 80%	–	–	10 to 60 min	–
C[C@]12CC[C@H]3[C@@H](CCC4=CC(=O)NCC[C@@]43C)C1=CC=C2n1ccnc1	≥ 50 min	–	≤ 11 nM	< 30%	≥ 80%	–	–	10 to 60 min	–
C[C@]12CCNC(=O)C=C1CC[C@@H]1[C@@H]2CC[C@]2(C)C(n3ccnc3)=CC[C@@H]12	≥ 50 min	–	≤ 11 nM	< 30%	≥ 80%	–	–	10 to 60 min	≤ 15 nM
CN1CC[C@@]2(C)C(=CC1=O)CC[C@H]1C3=CC=C(n4ccnc4)[C@@]3(C)CC[C@@H]12	≥ 50 min	–	–	≥ 30%	≥ 80%	–	–	10 to 60 min	≤ 15 nM
C[C@]12CCNC(=O)C=C1CC[C@@H]1[C@@H]2CC[C@]2(C)C(n3cncn3)=CC[C@@H]12	1 to 10 min	< 32%	≤ 11 nM	≥ 30%	≥ 80%	–	–	1 to 10 min	–
CN1CC[C@@]2(C)C(=CC1=O)CCC1[C@@H]2CC[C@]2(C)C(c3cccnc3)=CC[C@@H]12 (single isomer, unassigned)	10 to 60 min	–	≤ 11 nM	≥ 30%	50 to 80%	–	–	10 to 60 min	–
